Experimental data from ChEMBL document CHEMBL1201862, “PubChem BioAssay data set” (2004).
Activity calls are given as the source filed them. For most assays here, no stated cut-off is given here; in the data, actives have a measured EC50 and inactives only a lower limit.

Columns and labels:
Paired box protein Pax-8 = Paired box protein Pax-8 (Homo sapiens, UniProt Q06710); assay: inhibitors of PAX8-driven TPO luciferase reporter, dose response, RMG-I cells, cherry-pick (AID 687027); format: functional, cell-based;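 further: luciferase reporter driven by Pax8 target thyroperoxidase promoter measured by SteadyGlo luminescence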
Sequence of Paired box protein Pax-8 (Q06710 whole entry): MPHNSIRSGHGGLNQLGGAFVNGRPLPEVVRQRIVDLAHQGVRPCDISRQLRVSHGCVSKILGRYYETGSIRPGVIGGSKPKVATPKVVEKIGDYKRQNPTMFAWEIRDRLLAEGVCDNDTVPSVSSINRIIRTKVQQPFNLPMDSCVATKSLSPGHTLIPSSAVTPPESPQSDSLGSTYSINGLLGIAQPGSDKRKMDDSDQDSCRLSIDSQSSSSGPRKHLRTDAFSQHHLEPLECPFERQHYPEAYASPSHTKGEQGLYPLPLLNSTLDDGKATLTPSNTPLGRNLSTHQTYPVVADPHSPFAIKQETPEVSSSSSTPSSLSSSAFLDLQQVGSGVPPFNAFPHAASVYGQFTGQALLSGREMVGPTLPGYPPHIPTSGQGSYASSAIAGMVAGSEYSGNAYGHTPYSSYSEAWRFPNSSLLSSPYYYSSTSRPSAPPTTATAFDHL

INS1 = assay: beta cell apoptosis inhibitors, cytokine rescue, dose response, luminescence, retest (AID 449756); format: functional, cell-based; conditions: Rattus norvegicus;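 further: cell death triggered by IL-1 beta plus TNF-alpha plus IFN-gamma mixture; protective hits raise ATP signal compared with cytokine alone wells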
[1] = target: T1, Heat shock factor protein 1 (Mus musculus, UniProt P38532); assay: HSF1 potentiators in luciferase reporter cells, confirmation, cell-based, NIH3T3, luminescence, dose retest (AID 435004); format: functional;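 further: stress induced by proteasome inhibitor MG132 added 30 min after compound; luciferase reporter driven by HSF1 response element in NIH3T3 cells; actives raise luminescence as potentiators of the MG132 stress response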
T1 sequence (P38532 whole entry): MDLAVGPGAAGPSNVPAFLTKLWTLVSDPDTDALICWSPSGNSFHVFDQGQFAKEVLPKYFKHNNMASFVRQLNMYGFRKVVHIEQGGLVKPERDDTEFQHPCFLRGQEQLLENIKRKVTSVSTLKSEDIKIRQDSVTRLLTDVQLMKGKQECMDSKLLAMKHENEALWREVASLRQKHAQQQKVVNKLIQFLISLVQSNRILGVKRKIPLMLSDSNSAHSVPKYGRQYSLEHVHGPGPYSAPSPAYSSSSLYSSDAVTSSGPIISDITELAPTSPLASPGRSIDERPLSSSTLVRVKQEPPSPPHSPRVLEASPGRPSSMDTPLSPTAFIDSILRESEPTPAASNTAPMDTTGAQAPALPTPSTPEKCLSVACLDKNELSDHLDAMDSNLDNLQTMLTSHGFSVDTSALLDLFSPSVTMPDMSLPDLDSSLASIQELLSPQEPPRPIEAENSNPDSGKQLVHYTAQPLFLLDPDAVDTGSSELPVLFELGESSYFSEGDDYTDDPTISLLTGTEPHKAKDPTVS

[2] = tested on: Streptococcus sp. 'group A'; assay: growth inhibition of control SK(-) GAS strain, dose response, counter-screen for streptokinase expression inhibitor project, luminescence, kanamycin, BacTiterGlo, confirmation (AID 1900); format: functional, organism-based
Streptokinase A = target: T2, Streptokinase A (Streptococcus pyogenes serotype M1, UniProt P10520); assay: S. pyogenes streptokinase expression inhibitors, potency, dose response, plasminogen activation absorbance, OD405 (AID 1914); format: functional, Streptococcus pyogenes M1 GAS;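 further: secreted streptokinase activity via plasminogen activation per viability signal from cell pellet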
T2 sequence (P10520 whole entry): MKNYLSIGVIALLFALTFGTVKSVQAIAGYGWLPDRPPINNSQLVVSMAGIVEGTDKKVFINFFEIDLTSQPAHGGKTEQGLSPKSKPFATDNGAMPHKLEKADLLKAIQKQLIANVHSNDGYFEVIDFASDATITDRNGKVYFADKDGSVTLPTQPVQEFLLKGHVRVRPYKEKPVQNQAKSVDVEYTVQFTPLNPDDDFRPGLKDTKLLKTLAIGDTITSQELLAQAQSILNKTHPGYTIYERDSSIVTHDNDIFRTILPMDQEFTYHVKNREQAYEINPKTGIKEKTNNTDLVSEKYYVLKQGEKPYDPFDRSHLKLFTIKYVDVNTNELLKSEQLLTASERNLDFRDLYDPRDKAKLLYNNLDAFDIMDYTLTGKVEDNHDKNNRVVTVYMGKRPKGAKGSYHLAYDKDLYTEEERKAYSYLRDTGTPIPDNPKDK

[3] = inhibitors of intracellular T. cruzi replication, confirmation, NIH3T3 host cells, beta-gal luminescence (AID 2044); format: functional, cell-based;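 further: intracellular parasites grown in NIH/3T3 mouse fibroblasts as host cells; luminescent beta-galactosidase reporter signal from transgenic T. cruzi replicating inside host cells; inhibitors lower the luminescence signal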
[4] = cytotoxicity toward NIH3T3 fibroblasts, dose response, counter-screen, cell-based, ATP luminescence, mouse fibroblasts (AID 2010); format: functional;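 further: cells exposed to compound for about 90 hours before reading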
Streptococcus = assay: Group A Streptococcus viability loss, dose response, counter-screen for streptokinase expression inhibitor project, luminescence, BacTiterGlo (AID 1915); format: functional, organism-based;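 further: potency for reduction of bacterial viability or growth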
[5] = NIH-3T3 fibroblast cytotoxicity, dose response, cytotoxicity control, cell-based, fluorescence, Alamar Blue, secondary assay (AID 2327); format: functional;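 further: NIH-3T3 mouse fibroblasts cultured with fluconazole at 8 µg/mL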
[6] = C. albicans growth with fluconazole, confirmation, fluorescence, retest (AID 2467); format: functional, cell-based
cells = format: functional
[7] = growth suppression of PTEN-null colon cells, dose response, cell-based, HCT116 PTEN knockout (AID 1047); format: functional;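 further: HCT116 colon tumor cells with PTEN knocked out; cells exposed to compound for 60 hours before readout; potency for loss of cell viability measured by luminescence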
[8] = growth suppression of beta-catenin-knockout colon cells, dose response, cell-based, HCT116, human colon tumor (AID 1045); format: functional;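 further: HCT116 colon tumor cells with beta catenin knocked out; cells exposed to compound for 60 hours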

Structure (SMILES): Brc1ccc(-n2cc(-c3ccccc3)c3c(NN4CCOCC4)ncnc32)cc1
- AC50 (Paired box protein Pax-8): 35.8 µM (active)

Structure (SMILES): CCCCCc1ccc(-c2cn(CN3C(=O)c4ccccc4C3=O)nn2)cc1
- AC50 (INS1): 1.82 µM (active)

Structure (SMILES): Cc1ccc(=O)n(C(C(=O)NCc2ccco2)C(=O)c2ccc(F)cc2)c1 (stereo unspecified)
- EC50 [1]: > 260 µM (inactive)

Structure (SMILES): CC(=O)c1c(N2CCOCC2)nc2ccc(Br)cc2c1-c1ccccc1
- EC50 [1]: 124 µM (active)

Structure (SMILES): CCC1CCCCN1C(=O)c1cc(COc2ccc(-n3cncn3)cc2)on1 (stereo unspecified)
- AC50 (INS1): 8.64 µM (active)

Structure (SMILES): C=CCN1C(=O)NC(c2ccccc2)(C(F)(F)F)S/C1=C(\C#N)c1nnc(N2CCOCC2)n1-c1ccccc1 (stereo unspecified)
- EC50 [1]: 22.1 µM (active)

Structure (SMILES): CCn1cc(Cl)c(C(=O)N2N=C(c3ccc4ccccc4c3)CC2c2ccccc2O)n1 (stereo unspecified)
- EC50 [2]: 9.18 µM (active)
- EC50 (Streptokinase A): 13 µM (active)
- EC50 [3]: 1.66 µM (active)
- EC50 [4]: > 60 µM (inconclusive)
- EC50 (Streptococcus): > 150 µM (not active)

Structure (SMILES): COC(=O)C1=NN(C(=O)c2ccc(Cl)cc2)C(O)(c2ccccc2)C1 (stereo unspecified)
- EC50 [5]: 29.9 µM (active)
- EC50 [6]: > 38 µM (not active)

Structure (SMILES): COc1ccc(N(CC(=O)NCCC2=CCCCC2)S(=O)(=O)c2ccccc2)cc1
- EC50 [1]: > 260 µM (inactive)

Structure (SMILES): O=C1NN(c2ccccc2)C(=O)/C1=C\c1ccc2c(c1)OCO2
- EC50 [1]: > 260 µM (inactive)

Structure (SMILES): CCOC(=O)CNc1ccc(C(=O)OCC)cc1[N+](=O)[O-]
- IC50 (cells): 13.3 µM (active)

Structure (SMILES): CC1CCN(c2nc(CN3CCCCC3)nc3scc(-c4ccccc4)c23)CC1
- EC50 [2]: 16.9 µM (active)
- EC50 (Streptokinase A): 19.1 µM (inconclusive)
- EC50 (Streptococcus): > 150 µM (not active)

Structure (SMILES): COc1ccccc1-c1cc(-c2ccccc2)nc(SC(C(N)=O)c2ccccc2)c1C#N (stereo unspecified)
- EC50 [7]: 5.97 µM (active)
- EC50 [8]: 7.47 µM (active)

Structure (SMILES): COCC(=O)Nc1nc2n(n1)C(c1ccccc1Cl)CC(c1ccc(OC)cc1)N2 (stereo unspecified)
- EC50 [5]: > 160 µM (inactive)
- EC50 [6]: > 38 µM (not active)

Structure (SMILES): COc1ccc(CCn2c(C)cc(C(=O)COC(=O)c3ccc(NC(=O)CC#N)cc3)c2C)cc1
- EC50 [2]: 61.7 µM (active)
- EC50 (Streptokinase A): > 150 µM (not active)
- EC50 (Streptococcus): > 150 µM (not active)

Structure (SMILES): CCOc1ccccc1NC(=O)N1CCCC(c2nc(O)c3nnn(Cc4ccc(C)cc4)c3n2)C1 (stereo unspecified)
- EC50 [7]: 33.7 µM (active)
- EC50 [8]: 37.4 µM (active)

Structure (SMILES): COc1ccc(Nc2nc(N)nc(CN3CCc4ccccc4C3)n2)cc1
- EC50 [7]: 41.9 µM (active)
- EC50 [8]: 33.2 µM (active)

Structure (SMILES): COc1ccc(CCNC(=O)c2c(N)n(CCN3CCOCC3)c3nc4ccccc4nc23)cc1
- EC50 [7]: 13.4 µM (active)
- EC50 [8]: 18.4 µM (active)

Structure (SMILES): CN(C)S(=O)(=O)Oc1cccc(C(=O)Nc2ccc(Cl)cc2)c1
- EC50 [5]: > 160 µM (inactive)
- EC50 [6]: 1.25 µM (active)

Structure (SMILES): CSc1nc2nccc(-c3ccc(-c4ccccc4)cc3)n2n1
- EC50 [2]: 3.79 µM (active)
- EC50 (Streptokinase A): > 150 µM (not active)
- EC50 (Streptococcus): 23.6 µM (active)

Structure (SMILES): COc1ccc(NC(=O)Cn2cnc3c(cnn3-c3ccc(C)c(C)c3)c2=O)c(OC)c1
- EC50 [7]: 29.5 µM (active)
- EC50 [8]: 27.8 µM (active)

Structure (SMILES): CCOc1ccccc1N=C(S)N(Cc1cc2ccc(C)cc2nc1O)CC1CCCN1CC (stereo unspecified)
- EC50 [7]: 20.5 µM (active)
- EC50 [8]: 17.4 µM (active)

Structure (SMILES): C/C=C/c1c(F)c(F)c(Oc2ccc(C(=O)O)cc2)c(F)c1F
- EC50 [1]: > 260 µM (inactive)

Structure (SMILES): Cc1occc1C(=O)N1CCCC(N2CCN(c3cccc(C(F)(F)F)c3)CC2)C1 (stereo unspecified)
- AC50 (INS1): 111 µM (active)

Structure (SMILES): CC(C)CN(C(=O)COC(=O)C12CC3CC(CC(Cl)(C3)C1)C2)c1c(N)n(Cc2ccccc2)c(=O)[nH]c1=O
- AC50 (INS1): 7.15 µM (active)

Structure (SMILES): COCCCN1C(=O)C(O)=C(C(=O)c2ccc(OCC(C)C)cc2C)C1c1cccnc1 (stereo unspecified)
- EC50 [5]: > 150 µM (inactive)
- EC50 [6]: > 38 µM (not active)

Structure (SMILES): Cc1nn2c(O)c3c(nc2c1-c1ccccc1)CCCC3
- IC50 (cells): 11.8 µM (active)

Structure (SMILES): Fc1ccccc1N=C(S)N1CCN(c2ccccn2)CC1
- EC50 [1]: > 260 µM (inactive)

Structure (SMILES): O=C(NC1CCCCC1)c1cc([N+](=O)[O-])n[nH]1
- EC50 [5]: 154 µM (active)
- EC50 [6]: 1.66 µM (active)

Structure (SMILES): COCCCNC(=O)COC(=O)c1ccc(-c2nc3ccccc3s2)s1
- IC50 (cells): 10.5 µM (active)

Structure (SMILES): O=C(Cc1nc2ccccc2nc1O)c1ccc(Cl)cc1
- EC50 [1]: 198 µM (inconclusive)

Structure (SMILES): O=C(c1ccc(Br)cc1)N1CCCC(c2nc(-c3cccs3)no2)C1 (stereo unspecified)
- EC50 [1]: > 260 µM (inactive)

Structure (SMILES): CC(=O)OCC1=C(C(=O)O)N2C(=O)C(NC(=O)c3ccc(F)cc3)C2SC1 (stereo unspecified)
- EC50 [2]: 3.94 µM (active)
- EC50 (Streptokinase A): > 150 µM (not active)
- EC50 (Streptococcus): 7.79 µM (active)

Structure (SMILES): CCOC(=O)c1c(C)oc2c1c(C(c1ccccc1)N1CCOCC1)c(O)c1ccccc12 (stereo unspecified)
- EC50 [2]: 3.16 µM (active)
- EC50 (Streptokinase A): 0.886 µM (active)
- EC50 (Streptococcus): 5.32 µM (active)

Structure (SMILES): c1ccc2c(Nc3nc4c(s3)CCCC4)cccc2c1
- EC50 [2]: 14.4 µM (active)
- EC50 (Streptokinase A): 19.6 µM (inconclusive)
- EC50 (Streptococcus): > 150 µM (not active)

Structure (SMILES): COc1cc(OC)cc(-c2nc3ccccc3c(=O)o2)c1
- IC50 (cells): 8.58 µM (active)

Structure (SMILES): O=C1CCC(/C=C/c2ccccc2)=NN1
- EC50 [1]: > 260 µM (inactive)

Structure (SMILES): COCCn1c(SCC(=O)NC2CCCCC2)nc2c(c1=O)SCC2
- EC50 [1]: > 260 µM (inactive)

Structure (SMILES): Nc1c(Cl)ncnc1N/N=C/c1ccccn1
- AC50 (INS1): 0.521 µM (active)

Structure (SMILES): C[C@H]1CCCCO[C@H](CN(C)Cc2ccc(C(F)(F)F)cc2)[C@@H](C)CN([C@@H](C)CO)C(=O)c2cc(NC(=O)Nc3ccc(F)cc3)ccc2O1
- AC50 (Paired box protein Pax-8): 10.6 µM (active)

Structure (SMILES): C[C@H](CO)N1C[C@H](C)[C@H](CN(C)S(=O)(=O)c2cccs2)OCCCC[C@H](C)Oc2ccc(NC(=O)NC3CCCCC3)cc2C1=O
- AC50 (Paired box protein Pax-8): 10.7 µM (active)

Structure (SMILES): Cc1cccc(-c2ccc([C@H]3[C@H](CO)N4CCCCN(S(=O)(=O)c5ccccc5C)C[C@@H]34)cc2)c1
- AC50 (Paired box protein Pax-8): 11.4 µM (active)

Structure (SMILES): CSCC[C@H](NC(=O)OC(C)(C)C)C(=O)N/N=C/c1cc2ccc(C)cc2nc1Cl
- EC50 [7]: 18.7 µM (active)
- EC50 [8]: 17.7 µM (active)
